Data from patent US10245261B2, “Substituted indol-5-ol derivatives and their therapeutic applications” (NantBioScience, Inc., priority 2013, dated 2019).

Experiments:
Test in all cases: KinaseProfiler kinase assay
Format in all cases: biochemical
[1] = target: Abl(h) (Homo sapiens, UniProt P00519)
[2] = target: KDR(h) (Homo sapiens, UniProt P35968)
[3] = target: T1, Aurora-A(h) (Homo sapiens, UniProt O14965); settings: read-out: % Inhibition @1 μM Auroro-A
T1 sequence (O14965 1-403): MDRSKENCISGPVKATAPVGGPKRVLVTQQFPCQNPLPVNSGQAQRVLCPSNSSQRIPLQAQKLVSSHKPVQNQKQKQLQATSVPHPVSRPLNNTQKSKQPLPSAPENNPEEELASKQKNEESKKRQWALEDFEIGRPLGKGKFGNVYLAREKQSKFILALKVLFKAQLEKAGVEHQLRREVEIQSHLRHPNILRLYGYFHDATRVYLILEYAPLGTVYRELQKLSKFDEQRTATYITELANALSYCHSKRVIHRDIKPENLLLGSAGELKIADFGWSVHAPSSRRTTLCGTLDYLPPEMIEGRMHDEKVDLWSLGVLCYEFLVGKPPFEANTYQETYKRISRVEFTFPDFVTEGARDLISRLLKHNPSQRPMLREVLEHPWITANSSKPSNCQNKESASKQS
Experimental: (§1) This example tests the inhibitory properties of representative compounds of the invention in c-Src kinase, Aurora-A kinase, Flt3 kinase, Ret kinase and TrkA Kinase assays (see, Daniele Fancelli et al, J. Med. Chem., 2006, 49 (24), pp 7247-7251). The KinaseProfiler™ Service Assay Protocols (Millipore) was used to test the kinase inhibiting activity of novel compounds from this invention. To do this, the buffer composition was as: 20 mM MOPS, 1 mM EDTA, 0.01% Brij-35, 5% Glycerol, 0.1% β-mercaptoethanol, 1 mg/mL BSA. Test compounds were initially dissolved in DMSO at the desired concentration, then serially diluted to the kinase assay buffer. In a final reaction volume of 25 μL, Aurora-A(h) (5-10 mU) is incubated with 8 mM MOPS pH 7.0, 0.2 mM EDTA, 200 μM LRRASLG (Kemptide), 10 mM MgAcetate and [γ^33P-ATP]. The reaction was initiated by the addition of the MgATP mix. After incubation for 40 minute at room temperature, the reaction was stopped by addition of 5 μL of a 3% phosphoric acid solution. 10 μL of the reaction was then spotted onto a P30 filtermat and washed three times for 5 minutes in 50 mM phosphoric acid and once in methanol prior to drying and scintillation counting. Wells containing substrate but no kinase and wells containing a phosphopeptide control were used to set 0% and 100% phosphorylation value, respectively.
(§2) The Kinase Hotspot℠ kinase assay was also used to test the compounds for IC50 or % inhibitions (Reaction Biology Corp.). Inhibitory IC50 values were determined by titration of compound at the optimal kinase concentration (Kinase EC50).

[4] = target: T2, Flt3(h) (Homo sapiens, UniProt P36888)
T2 sequence (P36888 27-993): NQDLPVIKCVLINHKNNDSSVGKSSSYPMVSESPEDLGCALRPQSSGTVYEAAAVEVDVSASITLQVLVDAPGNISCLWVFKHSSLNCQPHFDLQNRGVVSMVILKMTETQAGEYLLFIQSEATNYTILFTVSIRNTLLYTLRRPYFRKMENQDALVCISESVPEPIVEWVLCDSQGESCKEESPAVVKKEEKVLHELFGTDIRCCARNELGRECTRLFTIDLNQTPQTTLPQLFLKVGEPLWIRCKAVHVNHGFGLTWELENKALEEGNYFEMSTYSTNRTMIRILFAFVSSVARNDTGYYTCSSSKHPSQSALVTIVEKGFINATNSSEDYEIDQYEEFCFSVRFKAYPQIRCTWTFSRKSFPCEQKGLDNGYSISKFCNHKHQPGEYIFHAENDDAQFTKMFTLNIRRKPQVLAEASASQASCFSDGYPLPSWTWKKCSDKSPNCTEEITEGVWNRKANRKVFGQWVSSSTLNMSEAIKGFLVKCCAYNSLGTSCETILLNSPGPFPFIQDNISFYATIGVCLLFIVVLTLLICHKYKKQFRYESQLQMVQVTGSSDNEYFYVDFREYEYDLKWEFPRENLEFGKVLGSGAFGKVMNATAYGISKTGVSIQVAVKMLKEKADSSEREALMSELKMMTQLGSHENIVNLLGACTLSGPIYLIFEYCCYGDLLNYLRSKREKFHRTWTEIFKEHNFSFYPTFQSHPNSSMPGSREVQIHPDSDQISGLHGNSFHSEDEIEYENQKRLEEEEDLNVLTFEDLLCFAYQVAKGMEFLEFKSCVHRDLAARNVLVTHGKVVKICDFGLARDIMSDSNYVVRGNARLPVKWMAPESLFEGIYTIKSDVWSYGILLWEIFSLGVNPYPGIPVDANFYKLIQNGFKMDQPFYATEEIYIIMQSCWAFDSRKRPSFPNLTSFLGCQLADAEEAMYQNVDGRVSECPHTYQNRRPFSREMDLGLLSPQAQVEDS
Experimental: as §1, §2

[5] = target: cSRC(h) (Homo sapiens, UniProt P12931)
Sequence of cSRC(h) (P12931 whole entry): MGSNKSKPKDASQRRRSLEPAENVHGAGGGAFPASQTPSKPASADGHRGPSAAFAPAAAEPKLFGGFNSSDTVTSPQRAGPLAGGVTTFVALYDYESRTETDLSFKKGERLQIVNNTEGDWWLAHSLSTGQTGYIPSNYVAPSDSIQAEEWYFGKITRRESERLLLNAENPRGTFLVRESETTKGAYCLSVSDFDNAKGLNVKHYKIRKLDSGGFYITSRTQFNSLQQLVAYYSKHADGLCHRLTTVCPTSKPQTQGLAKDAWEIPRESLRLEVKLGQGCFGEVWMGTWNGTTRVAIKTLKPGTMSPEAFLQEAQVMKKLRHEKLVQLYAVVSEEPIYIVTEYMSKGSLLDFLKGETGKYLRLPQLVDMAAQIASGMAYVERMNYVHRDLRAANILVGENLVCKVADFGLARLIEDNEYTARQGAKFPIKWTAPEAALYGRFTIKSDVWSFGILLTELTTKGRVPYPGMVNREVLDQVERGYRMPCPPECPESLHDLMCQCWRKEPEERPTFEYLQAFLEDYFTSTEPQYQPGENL
Experimental: as §1, §2

[6] = target: Ret(h) (Homo sapiens, UniProt P07949)
Sequence of Ret(h) (P07949 29-1114): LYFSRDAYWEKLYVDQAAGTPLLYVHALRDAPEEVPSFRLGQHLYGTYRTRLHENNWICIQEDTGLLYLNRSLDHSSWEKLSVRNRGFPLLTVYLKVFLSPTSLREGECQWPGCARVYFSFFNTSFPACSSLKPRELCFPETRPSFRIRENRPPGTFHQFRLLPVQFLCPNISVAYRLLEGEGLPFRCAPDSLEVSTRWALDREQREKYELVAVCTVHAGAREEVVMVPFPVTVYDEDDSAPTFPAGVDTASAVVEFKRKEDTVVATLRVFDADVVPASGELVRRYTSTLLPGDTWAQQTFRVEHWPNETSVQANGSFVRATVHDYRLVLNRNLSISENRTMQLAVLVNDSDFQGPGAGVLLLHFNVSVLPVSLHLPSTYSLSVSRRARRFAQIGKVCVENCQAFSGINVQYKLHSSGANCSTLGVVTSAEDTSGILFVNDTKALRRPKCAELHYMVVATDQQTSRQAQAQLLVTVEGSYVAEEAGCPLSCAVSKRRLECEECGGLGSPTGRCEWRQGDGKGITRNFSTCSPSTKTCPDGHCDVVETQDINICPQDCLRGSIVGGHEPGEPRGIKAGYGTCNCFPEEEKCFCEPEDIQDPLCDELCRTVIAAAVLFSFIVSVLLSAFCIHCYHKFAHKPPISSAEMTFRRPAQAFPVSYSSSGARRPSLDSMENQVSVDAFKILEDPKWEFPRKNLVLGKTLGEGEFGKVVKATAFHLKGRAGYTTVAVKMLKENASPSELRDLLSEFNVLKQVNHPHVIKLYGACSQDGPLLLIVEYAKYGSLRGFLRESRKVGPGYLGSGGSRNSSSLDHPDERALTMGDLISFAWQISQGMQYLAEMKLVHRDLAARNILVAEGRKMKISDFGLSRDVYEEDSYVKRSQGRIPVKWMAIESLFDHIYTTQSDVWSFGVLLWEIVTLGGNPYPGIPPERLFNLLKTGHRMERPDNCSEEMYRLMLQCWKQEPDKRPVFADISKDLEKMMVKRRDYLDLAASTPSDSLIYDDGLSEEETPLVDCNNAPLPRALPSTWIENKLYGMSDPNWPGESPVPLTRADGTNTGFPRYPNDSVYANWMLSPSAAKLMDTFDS
Experimental: as §1, §2

Sequence of Abl(h) (P00519 whole entry): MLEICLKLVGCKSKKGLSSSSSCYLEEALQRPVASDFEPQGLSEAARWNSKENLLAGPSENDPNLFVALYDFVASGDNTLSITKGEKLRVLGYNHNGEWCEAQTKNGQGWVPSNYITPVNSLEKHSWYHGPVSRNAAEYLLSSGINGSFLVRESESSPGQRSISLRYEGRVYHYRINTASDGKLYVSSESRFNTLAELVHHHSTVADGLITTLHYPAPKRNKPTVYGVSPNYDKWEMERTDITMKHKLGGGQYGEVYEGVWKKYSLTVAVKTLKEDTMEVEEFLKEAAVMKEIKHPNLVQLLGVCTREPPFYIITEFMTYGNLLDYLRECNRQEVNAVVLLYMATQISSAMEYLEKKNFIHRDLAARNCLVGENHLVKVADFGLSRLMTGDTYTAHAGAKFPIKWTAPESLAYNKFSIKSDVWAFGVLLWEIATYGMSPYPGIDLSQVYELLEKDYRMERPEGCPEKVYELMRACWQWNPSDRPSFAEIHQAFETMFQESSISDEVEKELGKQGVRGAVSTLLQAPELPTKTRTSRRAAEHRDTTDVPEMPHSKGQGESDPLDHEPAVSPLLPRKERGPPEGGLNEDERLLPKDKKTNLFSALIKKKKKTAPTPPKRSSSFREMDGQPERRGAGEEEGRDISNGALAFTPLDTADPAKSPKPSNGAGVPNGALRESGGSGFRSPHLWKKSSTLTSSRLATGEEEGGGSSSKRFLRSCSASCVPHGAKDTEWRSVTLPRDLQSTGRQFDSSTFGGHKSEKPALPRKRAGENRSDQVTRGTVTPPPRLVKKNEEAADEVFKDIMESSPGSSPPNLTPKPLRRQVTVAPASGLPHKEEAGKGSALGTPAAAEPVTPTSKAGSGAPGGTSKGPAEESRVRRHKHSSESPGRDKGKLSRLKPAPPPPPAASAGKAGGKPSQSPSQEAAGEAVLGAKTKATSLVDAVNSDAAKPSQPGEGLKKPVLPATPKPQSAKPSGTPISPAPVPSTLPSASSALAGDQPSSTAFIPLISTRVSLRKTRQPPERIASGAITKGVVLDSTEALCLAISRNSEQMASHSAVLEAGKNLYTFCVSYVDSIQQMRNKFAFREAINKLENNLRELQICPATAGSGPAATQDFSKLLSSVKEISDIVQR
Sequence of KDR(h) (P35968 20-1356): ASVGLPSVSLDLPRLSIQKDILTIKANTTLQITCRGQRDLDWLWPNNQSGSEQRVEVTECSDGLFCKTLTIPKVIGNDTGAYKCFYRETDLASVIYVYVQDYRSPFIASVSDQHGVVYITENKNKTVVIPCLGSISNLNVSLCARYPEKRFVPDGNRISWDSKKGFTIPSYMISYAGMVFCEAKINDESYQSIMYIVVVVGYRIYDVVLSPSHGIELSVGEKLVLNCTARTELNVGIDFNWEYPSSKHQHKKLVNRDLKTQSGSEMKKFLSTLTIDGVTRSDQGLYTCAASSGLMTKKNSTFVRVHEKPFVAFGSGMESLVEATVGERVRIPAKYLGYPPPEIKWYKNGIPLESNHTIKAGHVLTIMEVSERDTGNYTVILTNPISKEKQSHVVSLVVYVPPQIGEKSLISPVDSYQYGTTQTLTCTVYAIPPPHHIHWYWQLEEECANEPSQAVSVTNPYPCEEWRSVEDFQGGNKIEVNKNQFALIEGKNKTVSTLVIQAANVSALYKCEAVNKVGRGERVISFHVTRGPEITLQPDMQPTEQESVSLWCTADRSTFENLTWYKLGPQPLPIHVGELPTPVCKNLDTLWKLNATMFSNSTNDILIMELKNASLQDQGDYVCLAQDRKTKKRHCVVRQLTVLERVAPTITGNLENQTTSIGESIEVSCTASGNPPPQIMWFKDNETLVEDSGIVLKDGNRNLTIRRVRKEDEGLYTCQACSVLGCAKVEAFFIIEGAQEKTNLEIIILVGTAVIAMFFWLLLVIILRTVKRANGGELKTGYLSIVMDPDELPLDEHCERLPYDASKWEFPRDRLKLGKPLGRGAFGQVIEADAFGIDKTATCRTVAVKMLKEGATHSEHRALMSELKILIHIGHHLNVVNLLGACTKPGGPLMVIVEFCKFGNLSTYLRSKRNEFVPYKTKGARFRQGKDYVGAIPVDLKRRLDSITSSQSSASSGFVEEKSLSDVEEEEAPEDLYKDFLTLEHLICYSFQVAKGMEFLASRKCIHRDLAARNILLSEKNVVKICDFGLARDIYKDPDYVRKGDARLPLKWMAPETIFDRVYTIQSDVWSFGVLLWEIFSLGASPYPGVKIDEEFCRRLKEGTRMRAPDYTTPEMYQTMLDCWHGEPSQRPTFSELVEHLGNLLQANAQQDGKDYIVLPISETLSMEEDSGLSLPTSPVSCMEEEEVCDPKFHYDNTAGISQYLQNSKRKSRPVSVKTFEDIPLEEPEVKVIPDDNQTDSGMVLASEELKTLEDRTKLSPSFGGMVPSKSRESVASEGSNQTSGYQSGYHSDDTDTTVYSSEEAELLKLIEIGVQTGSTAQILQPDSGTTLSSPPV

## COCC1CCN(c2cc(Nc3cc(C4CC4)[nH]n3)nc(Oc3ccc4[nH]c(C)cc4c3F)n2)C1 (stereo not drawn) [Compound 44]
[1]
  inhibition at 1 µM: 94%
[2]
  inhibition at 1 µM: 90%
[3]
  inhibition at 1 µM: 97%
[4]
  inhibition at 1 µM: 100%
[5]
  inhibition at 1 µM: 102%
[6]
  inhibition at 1 µM: 100%

## CCC1CN(c2cc(Nc3cc(C4CC4)[nH]n3)nc(Oc3ccc4[nH]c(C)cc4c3F)n2)CCN1 (stereo not drawn) [Compound 41]
[1]
  inhibition at 1 µM: 108%
[2]
  inhibition at 1 µM: 94%
[3]
  inhibition at 1 µM: 87%
[4]
  inhibition at 1 µM: 99%
[5]
  inhibition at 1 µM: 97%
[6]
  inhibition at 1 µM: 101%

## C/C=C/c1cc(Nc2cc(N3CCC(O)CC3)nc(Oc3cc(F)c4[nH]c(C)cc4c3F)n2)n[nH]1 [Compound 95]
[1]
  inhibition at 1 µM: 110%
[2]
  inhibition at 1 µM: 96%
[3]
  inhibition at 1 µM: 100%
[4]
  inhibition at 1 µM: 100%
[5]
  inhibition at 1 µM: 100%
[6]
  inhibition at 1 µM: 101%

## C/C=C/c1cc(Nc2cc(N3CCC(OC)CC3)nc(Oc3ccc4[nH]c(C)cc4c3F)n2)n[nH]1 [Compound 58]
[1]
  inhibition at 1 µM: 112%
[2]
  inhibition at 1 µM: 96%
[3]
  inhibition at 1 µM: 90%
[4]
  inhibition at 1 µM: 99%
[5]
  inhibition at 1 µM: 101%
[6]
  inhibition at 1 µM: 102%

## Cc1cc2c(F)c(Oc3nc(Nc4cc(C5CC5)[nH]n4)cc(N4CCN(CCN(C)C)CC4)n3)ccc2[nH]1 [Compound 42]
[1]
  inhibition at 1 µM: 110%
[2]
  inhibition at 1 µM: 96%
[3]
  inhibition at 1 µM: 93%
[4]
  inhibition at 1 µM: 100%
[5]
  inhibition at 1 µM: 101%
[6]
  inhibition at 1 µM: 102%

## Cc1cc2c(F)c(Oc3nc(Nc4cc(C5CC5)[nH]n4)cc(N4CCN(S(C)(=O)=O)CC4)n3)ccc2[nH]1 [Compound 23]
[1]
  inhibition at 1 µM: 108%
[2]
  inhibition at 1 µM: 93%
[3]
  inhibition at 1 µM: 101%
[4]
  inhibition at 1 µM: 100%
[5]
  inhibition at 1 µM: 100%
[6]
  inhibition at 1 µM: 100%

## Cc1cc2c(F)c(Oc3nc(Nc4cc(C5CC5)[nH]n4)cc(N4CCN(c5cccnc5)CC4)n3)ccc2[nH]1 [Compound 26]
[1]
  inhibition at 1 µM: 109%
[2]
  inhibition at 1 µM: 93%
[3]
  inhibition at 1 µM: 101%
[4]
  inhibition at 1 µM: 100%
[5]
  inhibition at 1 µM: 100%
[6]
  inhibition at 1 µM: 101%

## Cc1cc2c(F)c(Oc3nc(Nc4cc(C5CC5)[nH]n4)cc(N4CCOC(CN)C4)n3)ccc2[nH]1 (stereo not drawn) [Compound 39]
[1]
  inhibition at 1 µM: 110%
[2]
  inhibition at 1 µM: 95%
[3]
  inhibition at 1 µM: 98%
[4]
  inhibition at 1 µM: 98%
[5]
  inhibition at 1 µM: 97%
[6]
  inhibition at 1 µM: 101%

## COC1CCN(c2cc(Nc3cc(C4CC4)[nH]n3)nc(Oc3ccc4[nH]c(C)cc4c3F)n2)C1 (stereo not drawn) [Compound 16]
[1]
  inhibition at 1 µM: 103%
[2]
  inhibition at 1 µM: 92%
[3]
  inhibition at 1 µM: 101%
[4]
  inhibition at 1 µM: 98%
[5]
  inhibition at 1 µM: 100%
[6]
  inhibition at 1 µM: 101%

## C/C=C/c1cc(Nc2cc(N3CCC(O)C3)nc(Oc3ccc4[nH]c(C)cc4c3F)n2)n[nH]1 (stereo not drawn) [Compound 61]
[1]
  inhibition at 1 µM: 112%
[2]
  inhibition at 1 µM: 97%
[3]
  inhibition at 1 µM: 95%
[4]
  inhibition at 1 µM: 100%
[5]
  inhibition at 1 µM: 100%
[6]
  inhibition at 1 µM: 102%

## C/C=C/c1cc(Nc2cc(N3CCS(=O)(=O)CC3)nc(Oc3ccc4[nH]c(C)cc4c3F)n2)n[nH]1 [Compound 57]
[1]
  inhibition at 1 µM: 111%
[2]
  inhibition at 1 µM: 95%
[3]
  inhibition at 1 µM: 96%
[4]
  inhibition at 1 µM: 100%
[5]
  inhibition at 1 µM: 99%
[6]
  inhibition at 1 µM: 102%

## C/C=C/c1cc(Nc2cc(N3CCN(CCOC)CC3)nc(Oc3ccc4[nH]c(C)cc4c3F)n2)n[nH]1 [Compound 54]
[1]
  inhibition at 1 µM: 108%
[2]
  inhibition at 1 µM: 96%
[3]
  inhibition at 1 µM: 85%
[4]
  inhibition at 1 µM: 99%
[5]
  inhibition at 1 µM: 99%
[6]
  inhibition at 1 µM: 100%

## Cc1cc2c(F)c(Oc3nc(Nc4cc(C5CC5)[nH]n4)cc(N4CC(O)C4)n3)ccc2[nH]1 [Compound 15]
[1]
  inhibition at 1 µM: 108%
[2]
  inhibition at 1 µM: 91%
[3]
  inhibition at 1 µM: 101%
[4]
  inhibition at 1 µM: 100%
[5]
  inhibition at 1 µM: 99%
[6]
  inhibition at 1 µM: 101%

## C/C=C/c1cc(Nc2cc(N3CCN(S(C)(=O)=O)CC3)nc(Oc3ccc4[nH]c(C)cc4c3F)n2)n[nH]1 [Compound 55]
[1]
  inhibition at 1 µM: 110%
[2]
  inhibition at 1 µM: 96%
[3]
  inhibition at 1 µM: 101%
[4]
  inhibition at 1 µM: 99%
[5]
  inhibition at 1 µM: 101%
[6]
  inhibition at 1 µM: 101%

## C/C=C/c1cc(Nc2cc(N3CCC(N(CC)CC)C3)nc(Oc3cc(F)c4[nH]c(C)cc4c3F)n2)n[nH]1 (stereo not drawn) [Compound 94]
[1]
  inhibition at 1 µM: 111%
[2]
  inhibition at 1 µM: 96%
[3]
  inhibition at 1 µM: 100%
[4]
  inhibition at 1 µM: 99%
[5]
  inhibition at 1 µM: 100%
[6]
  inhibition at 1 µM: 102%

## Cc1cc2c(F)c(Oc3nc(Nc4cc(C5CC5)[nH]n4)cc(N4C[C@@H](C)N[C@@H](C)C4)n3)ccc2[nH]1 [Compound 20]
[1]
  inhibition at 1 µM: 107%
[2]
  inhibition at 1 µM: 93%
[3]
  inhibition at 1 µM: 99%
[4]
  inhibition at 1 µM: 100%
[5]
  inhibition at 1 µM: 99%
[6]
  inhibition at 1 µM: 100%

## Cc1cc2c(F)c(Oc3nc(Nc4cc(C5CC5)[nH]n4)cc(N4CCN(c5ccncc5)CC4)n3)ccc2[nH]1 [Compound 27]
[1]
  inhibition at 1 µM: 108%
[2]
  inhibition at 1 µM: 92%
[3]
  inhibition at 1 µM: 101%
[4]
  inhibition at 1 µM: 100%
[5]
  inhibition at 1 µM: 99%
[6]
  inhibition at 1 µM: 101%

## Cc1cc(Nc2cc(N3CCNCC3)nc(Oc3cc(F)c4[nH]c(C)cc4c3F)n2)n[nH]1 [Compound 106]
[1]
  inhibition at 1 µM: 109%
[2]
  inhibition at 1 µM: 95%
[3]
  inhibition at 1 µM: 97%
[4]
  inhibition at 1 µM: 99%
[5]
  inhibition at 1 µM: 98%
[6]
  inhibition at 1 µM: 98%

## C/C=C/c1cc(Nc2cc(N3CCN(CCF)CC3)nc(Oc3ccc4[nH]c(C)cc4c3F)n2)n[nH]1 [Compound 74]
[1]
  inhibition at 1 µM: 111%
[2]
  inhibition at 1 µM: 96%
[3]
  inhibition at 1 µM: 99%
[4]
  inhibition at 1 µM: 100%
[5]
  inhibition at 1 µM: 100%
[6]
  inhibition at 1 µM: 102%

## Cc1cc2c(F)c(Oc3nc(Nc4cc(C5CC5)[nH]n4)cc(N4CCOCC4)n3)cc(F)c2[nH]1 [Compound 84]
[1]
  inhibition at 1 µM: 103%
[2]
  inhibition at 1 µM: 93%
[3]
  inhibition at 1 µM: 98%
[4]
  inhibition at 1 µM: 100%
[5]
  inhibition at 1 µM: 100%
[6]
  inhibition at 1 µM: 100%

## Cc1cc2c(F)c(Oc3nc(Nc4cc(C5CC5)[nH]n4)cc(N4CCC(O)CC4)n3)ccc2[nH]1 [Compound 21]
[1]
  inhibition at 1 µM: 107%
[2]
  inhibition at 1 µM: 87%
[3]
  inhibition at 1 µM: 100%
[4]
  inhibition at 1 µM: 101%
[5]
  inhibition at 1 µM: 98%
[6]
  inhibition at 1 µM: 100%
